The results in this text go back to ChEMBL document CHEMBL4680133, “Novel nitroimidazole derivatives evaluated for their trypanocidal, cytotoxic, and genotoxic activities” (Eur J Med Chem, 2020).

For series [1], the system named is RAW264.7. Description: Cytotoxicity against mouse RAW264.7 cells at 21.3 to 427 uM measured after 24 hrs by LDH assay. It is filed as cell-based. The conditions noted are these: raw264.7, 24 h, dose 21.3-427 µM.
The subject of series [2] is HepG2. Description: Cytotoxicity against human HepG2 cells at 21.3 to 427 uM measured after 24 hrs by LDH assay. It is filed as cell-based. The conditions noted are these: hepg2, 24 h, dose 21.3-427 µM.
For series [3], the system named is RAW264.7. Description: Genotoxicity in mouse RAW264.7 cells assessed as mitotic index at 427 uM measured after 24 hrs by micronucleus test (reference value: 40 to 249). It is filed as toxicity, cell-based. Conditions: raw264.7, 24 h.
Series [4] relates to RAW264.7. Description: Genotoxicity in mouse RAW264.7 cells assessed as mitotic index at 2135 uM measured after 24 hrs by micronucleus test (reference value: 40 to 249). In kind it is toxicity, cell-based. The conditions noted are these: raw264.7, 24 h.
The test system of series [5] is RAW264.7. Description: Genotoxicity in mouse RAW264.7 cells assessed as mitotic index at 4270 uM measured after 24 hrs by micronucleus test (reference value: 40 to 249). In kind it is toxicity, cell-based. Conditions: raw264.7, 24 h.
The test system of series [6] is RAW264.7. Description: Genotoxicity in mouse RAW264.7 cells assessed as number of micronucleated cells at 213 uM measured after 24 hrs by micronucleus test (reference value: 12 to 15). In kind it is toxicity, cell-based. Conditions: raw264.7, 24 h.
In series [7] the test system is RAW264.7. Description: Genotoxicity in mouse RAW264.7 cells assessed as number of micronucleated cells at 427 uM measured after 24 hrs by micronucleus test (reference value: 12 to 15). In kind it is toxicity, cell-based. Conditions: raw264.7, 24 h.
Series [8] concerns RAW264.7. Description: Genotoxicity in mouse RAW264.7 cells assessed as number of micronucleated cells at 2135 uM measured after 24 hrs by micronucleus test (reference value: 12 to 15). It is filed as toxicity, cell-based. The conditions noted are these: raw264.7, 24 h.
Series [9] relates to RAW264.7. Description: Genotoxicity in mouse RAW264.7 cells assessed as number of micronucleated cells at 4270 uM measured after 24 hrs by micronucleus test (reference value: 12 to 15). The conditions noted are these: raw264.7, 24 h. In kind it is toxicity, cell-based.
Series [10] is described as follows: Genotoxicity in mouse RAW264.7 cells assessed as survival at 213 uM measured after 24 hrs by micronucleus test (reference value: 100%). It is filed as toxicity, cell-based. The conditions noted are these: read-out: Survival.
Series [11] can be described thus: Genotoxicity in mouse RAW264.7 cells assessed as survival at 427 uM measured after 24 hrs by micronucleus test (reference value: 100%). It is filed as toxicity, cell-based. Conditions: read-out: Survival.
Series [12] is described as follows: Genotoxicity in mouse RAW264.7 cells assessed as survival at 2135 uM measured after 24 hrs by micronucleus test (reference value: 100%). The conditions noted are these: read-out: Survival. In kind it is toxicity, cell-based.
A short description of series [13]: Genotoxicity in mouse RAW264.7 cells assessed as survival at 4270 uM measured after 24 hrs by micronucleus test (reference value: 100%). It is filed as toxicity, cell-based. The conditions noted are these: read-out: Survival.
For series [14], the system named is HepG2. Description: Genotoxicity in human HepG2 assessed as mitotic index at 213 uM measured after 24 hrs by micronucleus test (reference value: 61 to 108). In kind it is toxicity, cell-based. Conditions: hepg2, 24 h.
In series [15] the test system is HepG2. Description: Genotoxicity in human HepG2 assessed as mitotic index at 427 uM measured after 24 hrs by micronucleus test (reference value: 61 to 108). The conditions noted are these: hepg2, 24 h. In kind it is toxicity, cell-based.
Series [16] deals with HepG2. Description: Genotoxicity in human HepG2 assessed as number of micronucleated cells at 427 uM measured after 24 hrs by micronucleus test (reference value: 14 to 18). It is filed as toxicity, cell-based. Conditions: hepg2, 24 h.
Series [17] deals with HepG2. Description: Genotoxicity in human HepG2 assessed as number of micronucleated cells at 2135 uM measured after 24 hrs by micronucleus test (reference value: 14 to 18). It is filed as toxicity, cell-based. Conditions: hepg2, 24 h.
Series [18] can be described thus: Genotoxicity in human HepG2 assessed as survival at 213 uM measured after 24 hrs by micronucleus test (reference value: 100%). It is filed as toxicity, cell-based. The conditions noted are these: HepG2 cells, read-out: Survival.
Series [19] in a line: Genotoxicity in human HepG2 assessed as survival at 427 uM measured after 24 hrs by micronucleus test (reference value: 100%). Conditions: HepG2 cells, read-out: Survival. It is filed as toxicity, cell-based.
The nature of series [20]: Genotoxicity in human HepG2 assessed as survival at 2135 uM measured after 24 hrs by micronucleus test (reference value: 100%). Conditions: HepG2 cells, read-out: Survival. In kind it is toxicity, cell-based.
Series [21] is described as follows: Genotoxicity in human HepG2 assessed as survival at 4270 uM measured after 24 hrs by micronucleus test (reference value: 100%). The conditions noted are these: HepG2 cells, read-out: Survival. It is filed as toxicity, cell-based.
In series [22] the test system is RAW264.7. Description: Cytotoxicity against mouse RAW264.7 cells assessed as induction of membrane damage at 17.5 to 350 uM measured after 24 hrs by LDH assay. It is filed as cell-based. Conditions: raw264.7, 24 h, dose 17.5-350 µM.
The subject of series [23] is HepG2. Description: Cytotoxicity against human HepG2 cells assessed as induction of membrane damage at 17.5 to 350 uM measured after 24 hrs by LDH assay. Conditions: hepg2, 24 h, dose 17.5-350 µM. In kind it is cell-based.
Series [24] in a line: Toxicity in Salmonella typhimurium TA102 at 100 ug/plate measured after 20 mins in absence of S9 fraction by colony counting method. The conditions noted are these: salmonella enterica subsp. enterica serovar typhimurium, dose 100 µg.
Series [25] concerns RAW264.7. Description: Genotoxicity in mouse RAW264.7 cells assessed as mitotic index at 350 uM measured after 24 hrs by micronucleus test (reference value: 40 to 249). In kind it is toxicity, cell-based. The conditions noted are these: raw264.7, 24 h.
Series [26] has as its system RAW264.7. Description: Genotoxicity in mouse RAW264.7 cells assessed as mitotic index at 1750 uM measured after 24 hrs by micronucleus test (reference value: 40 to 249). In kind it is toxicity, cell-based. Conditions: raw264.7, 24 h.
The test system of series [27] is RAW264.7. Description: Genotoxicity in mouse RAW264.7 cells assessed as number of micronucleated cells at 175 uM measured after 24 hrs by micronucleus test (reference value: 12 to 15). In kind it is toxicity, cell-based. The conditions noted are these: raw264.7, 24 h.
Series [28] deals with RAW264.7. Description: Genotoxicity in mouse RAW264.7 cells assessed as number of micronucleated cells at 350 uM measured after 24 hrs by micronucleus test (reference value: 12 to 15). Conditions: raw264.7, 24 h. It is filed as toxicity, cell-based.
The subject of series [29] is RAW264.7. Description: Genotoxicity in mouse RAW264.7 cells assessed as number of micronucleated cells at 1750 uM measured after 24 hrs by micronucleus test (reference value: 12 to 15). In kind it is toxicity, cell-based. The conditions noted are these: raw264.7, 24 h.
Series [30] relates to RAW264.7. Description: Genotoxicity in mouse RAW264.7 cells assessed as number of micronucleated cells at 3500 uM measured after 24 hrs by micronucleus test (reference value: 12 to 15). In kind it is toxicity, cell-based. Conditions: raw264.7, 24 h.
Series [31] is described as follows: Genotoxicity in mouse RAW264.7 cells assessed as survival at 350 uM measured after 24 hrs by micronucleus test (reference value: 100%). In kind it is toxicity, cell-based. The conditions noted are these: read-out: Survival.
Series [32] can be described thus: Genotoxicity in mouse RAW264.7 cells assessed as survival at 3500 uM measured after 24 hrs by micronucleus test (reference value: 100%). It is filed as toxicity, cell-based. The conditions noted are these: read-out: Survival.
The test system of series [33] is HepG2. Description: Genotoxicity in human HepG2 assessed as mitotic index at 175 uM measured after 24 hrs by micronucleus test (reference value: 61 to 108). In kind it is toxicity, cell-based. The conditions noted are these: hepg2, 24 h.
Series [34] relates to HepG2. Description: Genotoxicity in human HepG2 assessed as mitotic index at 350 uM measured after 24 hrs by micronucleus test (reference value: 61 to 108). It is filed as toxicity, cell-based. Conditions: hepg2, 24 h.
The subject of series [35] is HepG2. Description: Genotoxicity in human HepG2 assessed as mitotic index at 1750 uM measured after 24 hrs by micronucleus test (reference value: 61 to 108). It is filed as toxicity, cell-based. Conditions: hepg2, 24 h.
Series [36] deals with HepG2. Description: Genotoxicity in human HepG2 assessed as mitotic index at 3500 uM measured after 24 hrs by micronucleus test (reference value: 61 to 108). It is filed as toxicity, cell-based. Conditions: hepg2, 24 h.
A short description of series [37]: Genotoxicity in human HepG2 assessed as survival at 175 uM measured after 24 hrs by micronucleus test (reference value: 100%). In kind it is toxicity, cell-based. Conditions: HepG2 cells, read-out: Survival.
The nature of series [38]: Genotoxicity in human HepG2 assessed as survival at 3500 uM measured after 24 hrs by micronucleus test (reference value: 100%). It is filed as toxicity, cell-based. The conditions noted are these: HepG2 cells, read-out: Survival.

In the case of `Cn1cnc([N+](=O)[O-])c1-n1cc(C2CC2)nn1`, the Activity entry in the series with RAW264.7 [1] is recorded as “Non-Toxic”; in the series with HepG2 [2] it was “Non-Toxic”; with RAW264.7 [6] it was 12; with RAW264.7 [7] it was 11; in the series with RAW264.7 [8], 19; in the series on RAW264.7 [9], 20. Moreover, the Activity amounted to 17 in the series on HepG2 [16] and 19 in the series with HepG2 [17]. In addition, the Activity_index in the series with RAW264.7 [3] was found to be 34; with RAW264.7 [4] it was 37; in the series with RAW264.7 [5] it was 36; with HepG2 [14], 97; with HepG2 [15], 106. The viability at 24 h, 213 µM in series [10] and in series [18] was 99% in each case. The viability at 24 h, 427 µM in series [11] and in [19] was 99% each time. The viability at 24 h, 2135 µM in series [12] came to 96%; in series [20], 95%. Besides, the viability at 24 h, 4270 µM was found to be 94% in [13] and 91% in series [21].

Regarding `CCCCCc1ccc(-c2cn(-c3c([N+](=O)[O-])ncn3C)nn2)cc1`, the Activity entry in the series with RAW264.7 [22] is “Toxic”; in the series on HepG2 [23], “Toxic”; in series [24], “Toxic”; in the series on RAW264.7 [27], 11; in the series with RAW264.7 [28], 13; in the series with RAW264.7 [29], 23. The Activity with RAW264.7 [30] stood at 39. For the same compound, the Activity_index worked out at 223 with RAW264.7 [25]; 166 with RAW264.7 [26]; 111 with HepG2 [33]; 91 with HepG2 [34]; 59 in the series with HepG2 [35]; 53 in the series on HepG2 [36]. In addition, in series [31], the viability at 24 h, 350 µM worked out at 99%. Besides, the viability at 24 h, 3500 µM in series [32] turned out to be 71%; in series [38] it was 64%. Moreover, in series [37], the viability at 24 h, 175 µM worked out at 99%.
